Experimental data taken from patent US10947188B2, “Small molecule ferroptosis inducers” (THE TRUSTEES OF COLUMBIA UNIVERSITY IN THE CITY OF NEW YORK, priority 2016, dated 2021).

Test system: BJeLR
Assay: Modulatory profiling: Alamar Blue viability, lethal compound cotreated with death modulator (EC50, AUC); as to AUC, modulator BJ.3MA: reference of the scale not given here; as to AUC, modulator BJ.ALLN: reference of the scale not given here; as to AUC, modulator BJ.Boc D: reference of the scale not given here; as to AUC, modulator BJ.CHX: reference of the scale not given here; as to AUC, modulator BJ.Co2+: reference of the scale not given here; as to AUC, modulator BJ.DPQ: reference of the scale not given here; as to AUC, modulator BJ.Gd3+: reference of the scale not given here; as to AUC, modulator BJ.LNAME: reference of the scale not given here; as to AUC, modulator BJ.NAD+: reference of the scale not given here; as to AUC, modulator BJ.NMMA: reference of the scale not given here; as to AUC, modulator BJ.Nec-1: reference of the scale not given here; as to AUC, modulator BJ.Pepstatin: reference of the scale not given here; as to AUC, modulator BJ.TLCK: reference of the scale not given here
Type: cell-based, human
Design: AUC, modulator BJ.Gd3+ / AUC, modulator BJ.LNAME / AUC, modulator BJ.Lmin / AUC, modulator BJ.3MA / AUC, modulator BJ.ALLN / AUC, modulator BJ.Boc D / AUC, modulator BJ.CHX / AUC, modulator BJ.Co2+ / AUC, modulator BJ.Nec-1 / AUC, modulator BJ.Pepstatin / AUC, modulator BJ.TLCK / AUC, modulator BJ.atoc / AUC, modulator BJ.trolox / AUC, modulator BJ.zVAD: unit not given beside the values
Conditions: BJeLR cells, modulatory profile value (AUC); for AUC, modulator BJ.3MA: lethal compound cotreated with modulator 3MA; for AUC, modulator BJ.ALLN: lethal compound cotreated with modulator ALLN; for AUC, modulator BJ.Boc D: lethal compound cotreated with modulator Boc D; for AUC, modulator BJ.CHX: lethal compound cotreated with modulator CHX; for AUC, modulator BJ.Co2+: lethal compound cotreated with modulator Co2+; for AUC, modulator BJ.DPQ: lethal compound cotreated with modulator DPQ; for AUC, modulator BJ.Gd3+: lethal compound cotreated with modulator Gd3+; for AUC, modulator BJ.LNAME: lethal compound cotreated with modulator LNAME; for AUC, modulator BJ.Lmin/NAD+: lethal compound cotreated with modulator Lmin/NAD+; for AUC, modulator BJ.Lmin: lethal compound cotreated with modulator Lmin; for AUC, modulator BJ.NAD+: lethal compound cotreated with modulator NAD+; for AUC, modulator BJ.NMMA: lethal compound cotreated with modulator NMMA; for AUC, modulator BJ.Nec-1: lethal compound cotreated with modulator Nec-1; for AUC, modulator BJ.Pepstatin: lethal compound cotreated with modulator Pepstatin; for AUC, modulator BJ.TLCK: lethal compound cotreated with modulator TLCK; for AUC, modulator BJ.atoc: lethal compound cotreated with modulator atoc; for AUC, modulator BJ.trolox: lethal compound cotreated with modulator trolox; for AUC, modulator BJ.zVAD: lethal compound cotreated with modulator zVAD

Row | SMILES | AUC, modulator BJ.3MA | AUC, modulator BJ.ALLN | AUC, modulator BJ.Boc D | AUC, modulator BJ.CHX | AUC, modulator BJ.Co2+ | AUC, modulator BJ.DPQ | AUC, modulator BJ.Gd3+ | AUC, modulator BJ.LNAME | AUC, modulator BJ.Lmin/NAD+ | AUC, modulator BJ.Lmin | AUC, modulator BJ.NAD+ | AUC, modulator BJ.NMMA | AUC, modulator BJ.Nec-1 | AUC, modulator BJ.Pepstatin | AUC, modulator BJ.TLCK | AUC, modulator BJ.atoc | AUC, modulator BJ.trolox | AUC, modulator BJ.zVAD
1 | O=P(Oc1ccccc1)(Oc1ccccc1)O[C@@H]1C=CS(=O)(=O)C1 [CIL44] | 0.05756 | −0.0588 | −0.03963 | 0.1553 | 0.02387 | 0.05604 | 0.005556 | 0.008981 | −0.04975 | 0.03065 | −0.04167 | 0.02894 | −0.01119 | 0.002455 | −0.03963 | 0.009119 | −0.03989 | −0.01682
2 | CCc1ccc(/C=C2/SC(=O)N(CCC(C)NCCCN3CCOCC3)C2=O)cc1 (stereo not drawn) [CIL46] | 0.1884 | −0.01374 | −0.005903 | 0.1598 | −0.1389 | 0.03979 | −0.05606 | −0.02185 | 0.1825 | 0.2583 | −0.02371 | 0.03363 | 0.08455 | −0.01313 | −0.09715 | 0.1051 | 0.04647 | −0.05153
3 | CC1=CC(C)(C)Nc2ccc(OC(=O)c3cccnc3)cc21 [CIL47] | 0.1505 | −0.02628 | 0.05397 | −0.0269 | −0.1379 | 0.06122 | −0.02875 | −0.02479 | −0.01437 | −0.01696 | −0.06356 | 0.04023 | −0.02203 | 0.05454 | −0.03768 | 0.03519 | −0.02806 | −0.01497
4 | COc1ccc(-n2nnnc2S(=O)(=O)CC(=O)N2CCCCC2)cc1 [CIL48] | 0.09789 | −0.1008 | −0.02225 | 0.1619 | 0.05392 | 0.01112 | −0.004307 | −0.01039 | 0.06326 | −0.02664 | −0.04246 | 0.01412 | −0.04434 | −0.01271 | −0.01339 | 0.01164 | −0.03407 | −0.01807
